Data from the NIST ThermoML archive (doi:10.1016/j.jct.2010.11.014).

Columns and labels:
[1] = molar heat capacity at constant pressure; xn = mol fraction of the nth substance listed; details: 101.3 kPa, Liquid, Adiabatic Solution Calorimetry
[2] = excess molar enthalpy (molar enthalpy of mixing); xn = mol fraction of the nth substance listed; details: 298.15 K, 101.3 kPa, Liquid, Adiabatic Solution Calorimetry

CCn1cc[n+](C)c1.COP(=O)([O-])OC [1-ethyl-3-methylimidazolium dimethylphosphate] + CCO
molar heat capacity at constant pressure [J/K/mol], [1]
Details	x1 = 0.2	x1 = 0.4	x1 = 0.6	x1 = 0.8	x1 = 1
298.15 K	153.21	220.84	272.51	324.35	329.37
303.15 K	171.31	235.29	289.67	348.58	346.23
313.15 K	205.63	282.28	340.78	404	381.64
323.15 K	258.83	335.32	398.34	448.05	411.74

[2]
Details	excess molar enthalpy [kcal/mol]
x1 = 0.15	-0.428
x1 = 0.31	-0.656
x1 = 0.47	-0.57
x1 = 0.59	-0.522
x1 = 0.8	-0.286

CCn1cc[n+](C)c1.COP(=O)([O-])OC [1-ethyl-3-methylimidazolium dimethylphosphate] + O
molar heat capacity at constant pressure [J/K/mol], [1]
Details	x1 = 0.18	x1 = 0.4	x1 = 0.6	x1 = 0.8	x1 = 1
298.15 K	119.02	167.14	224.66	279.14	329.37
303.15 K	125.02	176.74	242.41	288.72	346.23
313.15 K	134.91	203.5	276.49	323.78	381.64
323.15 K	148.41	228.82	304.05	352.68	411.74

[2]
Details	excess molar enthalpy [kcal/mol]
x1 = 0.18	-1.26
x1 = 0.31	-1.51
x1 = 0.45	-1.44
x1 = 0.64	-1.15
x1 = 0.82	-0.604

CCn1cc[n+](C)c1.COP(=O)([O-])OC [1-ethyl-3-methylimidazolium dimethylphosphate] + CO
molar heat capacity at constant pressure [J/K/mol], [1]
Details	x1 = 0.2	x1 = 0.41	x1 = 0.59	x1 = 0.77	x1 = 1
298.15 K	147.03	213.84	269.26	297.59	329.37
303.15 K	163.64	229.84	289.07	306.37	346.23
313.15 K	215.28	271.99	337.82	334.16	381.64
323.15 K	252.08	312.33	370.93	371.12	411.74

[2]
Details	excess molar enthalpy [kcal/mol]
x1 = 0.1	-0.376
x1 = 0.3	-0.803
x1 = 0.5	-0.801
x1 = 0.65	-0.62
x1 = 0.79	-0.435
